# Results: article PMC4744035, “In Vivo, In Vitro, and In Silico Characterization of Peptoids as Antimicrobial Agents” (PLoS ONE, 2016)
# Like-named read-outs stand apart in the source and are kept apart here. Ends that are not written are not given here.
# Columns and labels:
# LPS (P. aeruginosa) [1] = system: LPS (P. aeruginosa); parameters: method as in PMID 8702613; conditions: divalent cation; read-out: I50 (affinity for LPS); cited from earlier work
# [2] = system: E. cloacae 218R Class C β-lactamase; test: microbe, parasite or virus in culture; conditions: 218R Class C β-lactamase
# Outline: (§1)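 Minimum inhibitory concentrations came from overnight 37°C cultures in Mueller Hinton medium seeded at 2–7 x 10^5 CFU/mL.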
# E. coli 63103 (ESBL) = test: microbe, parasite or virus in culture; conditions: 63103 (ESBL)
# Outline: as §1
# E. coli 64771 (ESBL) = test: microbe, parasite or virus in culture; conditions: 64771 (ESBL)
# Outline: as §1
# E. faecalis ATCC29212 = test: microbe, parasite or virus in culture; conditions: ATCC29212
# Outline: as §1
# E. faecalis F43559 (VRE) = test: microbe, parasite or virus in culture; conditions: F43559 (VRE)
# Outline: as §1
# E. faecalis W61950 (VRE) = test: microbe, parasite or virus in culture; conditions: W61950 (VRE)
# Outline: as §1
# E. faecium T62764 (VRE) = test: microbe, parasite or virus in culture; conditions: T62764 (VRE)
# Outline: as §1
# E. faecium mic80 (VRE) = test: microbe, parasite or virus in culture; conditions: mic80 (VRE)
# Outline: as §1
# [3] = system: K. pneumonia 61962 (ESBL); test: microbe, parasite or virus in culture
# Outline: as §1
# [4] = system: K. pneumonia 63575 (ESBL); test: microbe, parasite or virus in culture
# Outline: as §1
# P. aeruginosa 198 (MDR) = test: microbe, parasite or virus in culture; conditions: 198 (MDR)
# Outline: as §1
# P. aeruginosa 213 (MDR) = test: microbe, parasite or virus in culture; conditions: 213 (MDR)
# Outline: as §1
# P. aeruginosa 9 (MDR) = test: microbe, parasite or virus in culture; conditions: 9 (MDR)
# Outline: as §1
# [5] = system: P. aeruginosa H1027 (MDR); test: microbe, parasite or virus in culture; conditions: H1027 (MDR)
# Outline: as §1
# [6] = system: P. aeruginosa H103 (wild type); test: microbe, parasite or virus in culture; conditions: H103 (wild type)
# Outline: as §1
# [7] = system: P. aeruginosa LES400 (MDR); test: microbe, parasite or virus in culture; conditions: LES400 (MDR)
# Outline: as §1
# P. maltophilia ATCC13637 = test: microbe, parasite or virus in culture; conditions: ATCC13637
# Outline: as §1
# S. aureus ATCC25923 = test: microbe, parasite or virus in culture; conditions: ATCC25923
# Outline: as §1
# S. aureus C623 (MRSA) = test: microbe, parasite or virus in culture; conditions: C623
# Outline: as §1
# LPS (P. aeruginosa) [8] = test: Dansyl polymyxin B (DPX) displacement assay, LPS binding; conditions: DPX bound to P. aeruginosa LPS; for IC50: read-out: I50 (concentration that displaces 50% of LPS-bound DPX)
# Method: The Dansyl polymyxin B (DPX) displacement assay was carried out as described earlier. In brief, the fluorescence of DPX (Invitrogen) bound to LPS (P. aeruginosa) was measured by using a Luminescence spectrometer LS 50B (Perkin Elmer) with excitation and emission-wavelengths of 340 nm and 485 nm, respectively. A predetermined amount of DPX, resulting in 90% saturation of LPS, was added to 1 mL of 3 μg/mL of purified LPS. Small aliquots (5 μL of 1 μg/mL) of test compounds were added under constant stirring in the cuvette, and the displacement of DPX was measured for 30–60 seconds as a decrease in fluorescence. The process was repeated until maximum displacement was reached.
# The ability of other cationic molecules to displace DPX molecules bound to LPS (monitored by reduction in fluorescence) assesses their relative ability to bind to LPS [33, 34]. While the highly cationic MSI-78 (+10 charge) displaced 100% of bound DPX (equivalent to that of polymyxin B), peptoid 1 and MX-226 displaced 71% and 73% of bound DPX, respectively. […] A second parameter characterizing the LPS/polycation interaction is the I50, which is defined as the concentration of a polycation that displaces 50% of LPS-bound DPX. The I50 is inversely related to the relative affinity of each molecule for binding sites on LPS.
# [9] = system: 20 bacterial strains (13 Gram-negative, 7 Gram-positive)
# Method: The MICs of test agents were measured using a modified broth micro-dilution method in Difco Mueller Hinton medium, on a panel of bacterial pathogens that were both susceptible and resistant to common antibiotics (S1 File). Briefly, serial dilutions were performed in 0.01% acetic acid containing 0.2% bovine serum albumin at 10-fold the desired final concentration. Ten μL of the 10-fold concentrated test reagents were added to each well of a 96-well polypropylene microtitre plate containing 90 μL of Mueller Hinton media per well. Bacteria were added to the plate from an overnight culture at a final concentration of 2–7 x 10^5 CFU/mL and incubated overnight at 37°C. The MIC is defined as the concentration at which no growth was observed.
# Screening of peptoid antimicrobial activity against a panel of multidrug resistant superbugs was done according to the protocol described in the manuscript. The bacterial strains used in this panel included; P. aeruginosa PAO1 strain H103 [1], P. maltophilia ATCC#13637, S. aureus ATCC#25923 [1], E. faecalis ATCC#29212 [2], and E. cloacae 218R, constitutively expressing Class C chromosomal β-lactamase, were from the Hancock lab strains collection. An MRSA clinical isolate was kindly provided by Anthony Chow (Vancouver General Hospital, Vancouver, Canada). Two Klebsiella pneumoniae and two E. coli clinical isolates expressing extended spectrum β-lactamases (ESBL) were kindly provided by George Zhanel (Health Sciences Centre, Winnipeg, Canada). Vancomycin-resistant clinical isolates of Enterococcus faecalis and E. faecium were obtained from Ana M. Paccagnella (BC Centre for Disease Control, Vancouver, Canada). Three clinical isolates (#9, #198 and #213) of multi-drug resistant P. aeruginosa, were kindly provided by Carlos Kiffer (University of São Paulo, Brazil). […] Three P. aeruginosa clinical isolates of the Liverpool epidemic strain (LES) (H1027, H1030 and LES400) were all kindly provided by Craig Winstanley (University of Liverpool, UK). […] All tested bacterial strains were categorized as biohazard level 2 pathogens.
# [10] = system: diabetic foot ulcer infection; parameters: method as in PMID 18310135; conditions: Phase III, diabetic foot ulcers; cited from earlier work
# [11] = system: bowel perforation and sepsis; parameters: method as in PMID 15294887; conditions: cited from earlier work
# [12] = system: MDR P. aeruginosa (polymyxin B resistant isolate); parameters: method as in PMID 19635950; conditions: MDR P. aeruginosa isolate most resistant to peptoid 1; cited from earlier work
compound,measurement,setting,value
[Mg+2] [Mg^2+],IC50,LPS (P. aeruginosa) [1],620 µM
"GIGKFLKKAKKFGKAFVKILKK-NH2 (C-terminus assumed) [MSI-78, pexiganan, reference compound]",MIC,[2],2 µg/mL
same,MIC,E. coli 63103 (ESBL),16 µg/mL
same,MIC,E. coli 64771 (ESBL),2 µg/mL
same,MIC,E. faecalis ATCC29212,16 µg/mL
same,MIC,E. faecalis F43559 (VRE),16 µg/mL
same,MIC,E. faecalis W61950 (VRE),256 µg/mL
same,MIC,E. faecium T62764 (VRE),8 µg/mL
same,MIC,E. faecium mic80 (VRE),4 µg/mL
same,MIC,[3],32 µg/mL
same,MIC,[4],8 µg/mL
same,MIC,P. aeruginosa 198 (MDR),4 µg/mL
same,MIC,P. aeruginosa 213 (MDR),8 µg/mL
same,MIC,P. aeruginosa 9 (MDR),16 µg/mL
same,MIC,[5],2 µg/mL
same,MIC,[6],1 µg/mL
same,MIC,[7],4 µg/mL
same,MIC,P. maltophilia ATCC13637,2 µg/mL
same,MIC,S. aureus ATCC25923,64 µg/mL
same,MIC,S. aureus C623 (MRSA),16 µg/mL
same,bound DPX displaced (maximum displacement),LPS (P. aeruginosa) [8],100%
same,IC50,LPS (P. aeruginosa) [8],1.4 µM
same,"MICs, range against all Gram-positive strains tested",[9],4 to 256 µg/mL
same,median MIC against all Gram-positive strains tested,[9],16 µg/mL
same,patients in whom infection was eliminated or significantly reduced,[10],over 90%
same,endotoxin plasma levels,[11]; rat model of sepsis,reduce endotoxin plasma levels
same,reduction of bacterial counts,"[11]; rat, caecal ligation and puncture model",four orders of magnitude
polymyxin B,bound DPX displaced (maximum displacement),LPS (P. aeruginosa) [8],100%
same,IC50,LPS (P. aeruginosa) [8],3.2 µM
same,MIC,[12],64 µg/mL
